# Marks after values point to notes of the source that are not given here.
# Columns and labels:
# Format in all cases: cell-based
# [1] = system: rat chondrosarcoma cell line called LTC; experiment: Inhibition of aggrecan degradation induced by IL-1α (Western Blot, anti-aggrecan antibody G1 / NITGE); conditions: 100 μg/mL, in the presence or not of IL-1α (10 ng/mL), 4 days, FIG. 1
# Method: The assays were performed on chondrocyte cultures from a rat chondrosarcoma cell line called LTC.
# The LTC cells were kept in a monolayer culture in a Gibco DMEM medium (Dulbecco's Modification of Eagle's Medium) (containing 4.5 g/L of glucose) supplemented with sodium bicarbonate (3.7 g/L), glutamine (2 mM), ascorbic acid (50 mg/L), gentamicin (50 mg/L), and bovine fetal serum Hyalone (10%), at pH 7.4.
# The confluent LTC cell cultures were trypsinised and 40,000 cells per 0.5 mL of culture were seeded in 48-well plates. They were maintained for 5 days, during which time they deposited 15-30 μg of glycosaminoglycans (GAG) in each well.
# The medium was separated, the cell membranes were washed by adding 5×1 mL of a catabolic medium {DMEM+4.5 g/L glucose supplemented with sodium bicarbonate (3.7 g/L), glutamine (2 mM), and 10 ng/mL of IL-1α (interleukin-1α) at pH 7.4). […]
# For the Western Blot, 20 μL of 50 mM tris-acetate at pH 7.3 were added to each well. […] 25 μL-fractions of the supernatant were separated by electrophoresis (gel gradient 8-12% SDS PAGE) and analysed by means of a Western Blot using anti-aggrecan antibody G1. […] The antiserum was used at a 1:5,000 dilution and the peroxidase-conjugated goat anti-(rabbit IgG) was detected by means of the Amersham ECL Kit.
# [2] = system: human articular chondrocytes treated with interleukin-1 (IL-1); experiment: Aggrecans associated with IL-1-treated chondrocytes, measured by immunocytochemistry / flux cytometry; conditions: for Mean fluorescence intensity in the chondrocytes after labelling of aggrecan, M ± SD: one week of culture
# Method: The human articular chondrocytes were isolated and cultured following the previously described methods.
# The accumulation of aggrecans associated with the chondrocytes was measured, after a week of culture, by means of the immunocytochemistry technique described by L. Wang et al. (Osteoarthritis Cart., 9, 248-260 (2001)). The chondrocytes were treated with interleukin-1 (IL-1) in order to simulate a situation of inflammation and catabolism. The inulin polysulphate in Chemical Example 1 was added jointly with IL-1.
# Once the incubation period ended, the chondrocytes were released from the agarose gel following the described method. The chondrocytes and the associated aggrecans were studied by means of flux cytometry using monoclonal antibodies specifically directed against the aggrecans' proteic part.
# [3] = system: Human articular chondrocytes; experiment: Synthesis of extracellular aggrecans determined by incorporation of 35S in primary culture of human chondrocytes in agarose gel; conditions: for 35S incorporated into the aggrecans associated with the cells / 35S incorporated into the inter-territorial matrix's aggrecans / 35S incorporated into the re-synthesised aggrecans (total): 48 h
# Method: Human articular chondrocytes were isolated following the methods described by W. T. Green Jr. (Clin. Orthop., 75, 248-260 (1971)) and K. E. Kuettner et al. (J. Cell. Biol., 93, 743-750 (1982)).
# These chondrocytes were cultured in an agarose gel following the method described by P. D. Benya et al. (Cell, 30, 215-224, (1982)), and modified by G. Verbruggen et al. (Clin. Exp. Rheumatol., 8, 371-378 (1990)) and by M. Cornelissen et al. (J. Tiss. Cult. Meth., 15, 139-146 (1993)).
# The synthesis of aggrecans was determined by the incorporation of ^35S, using labelled sodium sulphate Na2^35SO4 as radioactive precursor. After two weeks of culture, 10 μCi/mL of radio-labelled precursor were introduced in the culture medium for 48 h, as was the compound to be assayed (inulin polysulphate in Chemical Example 1) at different concentrations (0.0, 0.1, 0.5, 1.0, 5.0 μg/mL).
# The synthesised ^35S aggrecans once again partially accumulated in the intercellular agarose matrix or else were released in the incubation medium.
# Once the incubation period ended, the agarose gel was mechanically broken down and subsequently digested by means of 3 mL of a 50 U/mL […] solution in a 0.067 M phosphate buffer, at pH 6.0, in the presence of proteinase inhibitors.
# The suspension thus produced was centrifuged; the supernatant containing the inter-territorial matrix's ^35S aggrecans and the incubation medium containing the ^35S aggrecan metabolites released in the extracellular matrix were subsequently united by means of chromatography.
# The residue, which contained the chondrocytes and the associated ^35S aggrecans, was treated for 48 hours with 1 mL of a 4.0 M guanidium chloride solution in a 0.05M acetate buffer at pH 5.8 containing the proteinase inhibitors.
# The purpose of this operation is to extract the ^35S aggrecans associated with the cells. The solution produced was centrifuged in order to separate the cells from the supernatant, which was subsequently separated by means of chromatography. The chromatography operations for the different fractions produced were performed on Sephadex G25 gel in a phosphate buffer pH 6.8 containing 0.01 M of Na2SO4, in order to separate the ^35S aggrecans from the free Na2^35SO4.
# The radioactivity of each of the macromolecular eluants produced was measured and related to the number of chondrocytes contained in the initial culture, expressed in pg of ^35SO4 incorporated into the aggrecans, per million chondrocytes per hour.
# [4] = Donor F45, IL-1 + IPS 0.5 μg/mL
# [5] = Donor F45, IL-1 + IPS 1.0 μg/mL
# [6] = Donor F45, IL-1 + IPS 2.5 μg/mL
# [7] = Donor M32, IL-1 + IPS 1.0 μg/mL
# [8] = Donor M32, IL-1 + IPS 2.5 μg/mL
# [9] = Donor M32, IL-1 + IPS 5.0 μg/mL
substance,measurement,setting,value
Inulin Polysulphate Sodium Salt [IPS],Effect on aggrecan degradation (band of aggrecan fragments labelled with antibody NITGE G1),[1],aggrecan degradation is inhibited
same,% Change with respect to the group treated with IL-1 (IL-1 = 100.0),[2]; [4],112.7* %
same,"Mean fluorescence intensity in the chondrocytes after labelling of aggrecan, M ± SD",[2]; [4],20.4 ± 0.2
same,% Change with respect to the group treated with IL-1 (IL-1 = 100.0),[2]; [5],147.0* %
same,"Mean fluorescence intensity in the chondrocytes after labelling of aggrecan, M ± SD",[2]; [5],26.6 ± 0.1
same,% Change with respect to the group treated with IL-1 (IL-1 = 100.0),[2]; [6],215.5* %
same,"Mean fluorescence intensity in the chondrocytes after labelling of aggrecan, M ± SD",[2]; [6],39.0 ± 0.2
same,% Change with respect to the group treated with IL-1 (IL-1 = 100.0),[2]; [7],116.2* %
same,"Mean fluorescence intensity in the chondrocytes after labelling of aggrecan, M ± SD",[2]; [7],20.8 ± 1.2
same,% Change with respect to the group treated with IL-1 (IL-1 = 100.0),[2]; [8],120.7* %
same,"Mean fluorescence intensity in the chondrocytes after labelling of aggrecan, M ± SD",[2]; [8],21.6 ± 1.1
same,% Change with respect to the group treated with IL-1 (IL-1 = 100.0),[2]; [9],139.7* %
same,"Mean fluorescence intensity in the chondrocytes after labelling of aggrecan, M ± SD",[2]; [9],25.0 ± 1.4
same,Concentration of optimum activity on aggrecan synthesis,"[3]; 35S incorporation, concentrations 0.1-5.0 μg/mL tested",about 0.5 μg/mL
same,% Total: aggrecans associated with the cells with respect to the total quantity of aggrecans,[3]; IPS 0.1 μg/mL,23.5%
same,% Total: inter-territorial matrix's aggrecans with respect to the total quantity of aggrecans,[3]; IPS 0.1 μg/mL,66.2%
same,% Total: re-synthesised aggrecans with respect to the total quantity of aggrecans,[3]; IPS 0.1 μg/mL,100%
same,"% change with respect to the non-treated control, aggrecans associated with the cells",[3]; IPS 0.1 μg/mL,15.1%
same,"% change with respect to the non-treated control, re-synthesised aggrecans (total)",[3]; IPS 0.1 μg/mL,2.9%
same,"% change with respect to the untreated control, inter-territorial matrix's aggrecans",[3]; IPS 0.1 μg/mL,1.4%
same,35S incorporated into the aggrecans associated with the cells,[3]; IPS 0.1 μg/mL,"2,737 pg ^35S/10^6 cells/h"
same,35S incorporated into the inter-territorial matrix's aggrecans,[3]; IPS 0.1 μg/mL,"7,818 pg ^35S/10^6 cells/h"
same,35S incorporated into the re-synthesised aggrecans (total),[3]; IPS 0.1 μg/mL,"11,756 pg ^35S/10^6 cells/h"
same,% Total: aggrecans associated with the cells with respect to the total quantity of aggrecans,[3]; IPS 0.5 μg/mL,18.4%
same,% Total: inter-territorial matrix's aggrecans with respect to the total quantity of aggrecans,[3]; IPS 0.5 μg/mL,70.7%
same,% Total: re-synthesised aggrecans with respect to the total quantity of aggrecans,[3]; IPS 0.5 μg/mL,100%
same,"% change with respect to the non-treated control, aggrecans associated with the cells",[3]; IPS 0.5 μg/mL,28.8* %
same,"% change with respect to the non-treated control, re-synthesised aggrecans (total)",[3]; IPS 0.5 μg/mL,51.5* %
same,"% change with respect to the untreated control, inter-territorial matrix's aggrecans",[3]; IPS 0.5 μg/mL,60.6%
same,35S incorporated into the aggrecans associated with the cells,[3]; IPS 0.5 μg/mL,"3,064* pg ^35S/10^6 cells/h"
same,35S incorporated into the inter-territorial matrix's aggrecans,[3]; IPS 0.5 μg/mL,"12,383 pg ^35S/10^6 cells/h"
same,35S incorporated into the re-synthesised aggrecans (total),[3]; IPS 0.5 μg/mL,"17,312* pg ^35S/10^6 cells/h"
same,% Total: aggrecans associated with the cells with respect to the total quantity of aggrecans,[3]; IPS 1.0 μg/mL,17.9%
same,% Total: inter-territorial matrix's aggrecans with respect to the total quantity of aggrecans,[3]; IPS 1.0 μg/mL,70.7%
same,% Total: re-synthesised aggrecans with respect to the total quantity of aggrecans,[3]; IPS 1.0 μg/mL,100%
same,"% change with respect to the non-treated control, aggrecans associated with the cells",[3]; IPS 1.0 μg/mL,11.9%
same,"% change with respect to the non-treated control, re-synthesised aggrecans (total)",[3]; IPS 1.0 μg/mL,33.7* %
same,"% change with respect to the untreated control, inter-territorial matrix's aggrecans",[3]; IPS 1.0 μg/mL,41.2* %
same,35S incorporated into the aggrecans associated with the cells,[3]; IPS 1.0 μg/mL,"2,662 pg ^35S/10^6 cells/h"
same,35S incorporated into the inter-territorial matrix's aggrecans,[3]; IPS 1.0 μg/mL,"10,887* pg ^35S/10^6 cells/h"
same,35S incorporated into the re-synthesised aggrecans (total),[3]; IPS 1.0 μg/mL,"15,281* pg ^35S/10^6 cells/h"
same,% Total: aggrecans associated with the cells with respect to the total quantity of aggrecans,[3]; IPS 5.0 μg/mL,17.4%
same,% Total: inter-territorial matrix's aggrecans with respect to the total quantity of aggrecans,[3]; IPS 5.0 μg/mL,67.9%
same,% Total: re-synthesised aggrecans with respect to the total quantity of aggrecans,[3]; IPS 5.0 μg/mL,100%
same,"% change with respect to the non-treated control, aggrecans associated with the cells",[3]; IPS 5.0 μg/mL,14.2%
same,"% change with respect to the non-treated control, re-synthesised aggrecans (total)",[3]; IPS 5.0 μg/mL,3.0%
same,"% change with respect to the untreated control, inter-territorial matrix's aggrecans",[3]; IPS 5.0 μg/mL,8.2%
same,35S incorporated into the aggrecans associated with the cells,[3]; IPS 5.0 μg/mL,"2,041 pg ^35S/10^6 cells/h"
same,35S incorporated into the inter-territorial matrix's aggrecans,[3]; IPS 5.0 μg/mL,"8,340 pg ^35S/10^6 cells/h"
same,35S incorporated into the re-synthesised aggrecans (total),[3]; IPS 5.0 μg/mL,"12,106 pg ^35S/10^6 cells/h"

# From patent US20080051350A1, “Therapeutic Use for a Group of Sulphated Polysaccharides” (Bioiberica, S.A., priority 2004, published 2008)
